In patent US20060222647A1, “Methods and compositions for modulating the activity of PDE5” (priority 1993, published 2006):
Where two headings read alike, the source gives them in different places.

What was measured:
[1] = molecular target: expressed bovine cGB-PDE cDNA protein product (Bos taurus, UniProt Q28156); assay: cGMP phosphodiesterase activity of extracts of COS cells transfected with bovine cGB-PDE, in presence of PDE inhibitors; type: biochemical
Procedure: The reaction mixture was incubated for 10 minutes at 30° C., and then stopped by boiling. Next, 10 μl of 10 mg/ml Crotalus atrox venom (Sigma) was added followed by a 10 minute incubation at 30° C.

[2] = molecular target: cGB-PDE (Bos taurus, UniProt Q28156); assay: Metal dependence of cGB-PDE PDE activity; type: biochemical
Procedure: The catalytic domains of mammalian PDEs and a Drosophila PDE contain two tandem conserved sequences (HX3 HX24 26 E) that are typical Zn^2+-binding motifs in Zn^2+ hydrolases such as thermolysin (Vallee and Auld, Biochem., 29: 5647-5659 (1990)). cGB-PDE binds Zn^2+ in the presence of large excesses of Mg^2+, Mn^2+, Fe^2+, Fe^3+, Ca^2+ or Cd^2+. In the absence of added metal, cGB-PDE has a PDE activity that is approximately 20% of the maximum activity that occurs in the presence of 40 mM Mg^2+, and this basal activity is inhibited by 1,10-phenanthroline or EDTA. […] PDE activity is stimulated by addition of Zn^2+ (0.02-1 μM) or Co^2+([…]), but not by Fe^2+, Fe^3+, Ca^2+, Cd^2+, or Cu^2+. Zn increases the basal PDE activity up to 70% of the maximum stimulation produced by 40 mM Mg^2+. The stimulatory effect of Zn^2+ in these assays may be compromised by an inhibitory effect that is caused by Zn^2+ concentrations>1 μM. The Zn^2+-supported PDE activity and Zn^2+ binding by cGB-PDE occur at similar concentrations of Zn^2+ cGB-PDE thus appears to be a Zn^2+ hydrolase and Zn^2+ appears to play a critical role in the activity of the enzyme. See, Colbran et al., The FASEB J., 8: Abstract 2148 (Mar. 15, 1994).

[3] = molecular target: T1, bovine cGB-PDE (Bos taurus, UniProt Q28156); assay: [3H]cGMP-binding assay of extracts of COS-7 cells transfected with pCDM8-cGB-PDE
T1 construct: which contains the entire coding region of cGB-8; made in house; host or cells: COS-7 cells, whole-cell extract
Procedure: Cell extracts were assayed for [^3H]cGMP-binding activity in the absence or presence of 0.2 mM 3-isobutyl-1-methylaxanthine (IBMX) (Sigma), a competitive inhibitor of cGMP hydrolysis. The cGMP binding assay, modified from the assay described in Thomas I, supra, was conducted in a total volume of 80 μl. […] Assays were carried out in the absence and presence of 0.2 mM IBMX. The reaction was initiated by the addition of the cell extract, and was incubated for 60 minutes at 0° C. Filtration of the reaction mixtures was carried out as described in Thomas I, supra. Blanks were determined by parallel incubations with homogenization buffer replacing cell extracts, or with a 100-fold excess of unlabelled cGMP.
Results of the assay are set out in FIG. 7. […] The ability of IBMX to stimulate cGMP binding 2-5 fold is a distinctive property of the cGMP-binding phosphodisterases.
Results are presented in FIG. 8 wherein cGMP binding in the absence of unlabelled competitor was taken as 100% and each data point represents the average of three separate determinations.

[4] = molecular target: native cGB-PDE and WT cGB-PDE (Bos taurus, UniProt Q28156); assay: cGMP-binding kinetics of native and recombinant wild type cGB-PDE; set-up: species or system bovine
[5] = molecular target: D478A mutant cGB-PDE (Bos taurus, UniProt Q28156, D478A); assay: cGMP-binding kinetics of D478A mutant cGB-PDE; set-up: species or system bovine
[6] = molecular target: T2, recombinant PDE5 (Mus musculus, UniProt Q8CG03); assay: cGMP saturation binding assay (Millipore filter binding); settings: 0.01-20 μM cGMP, IBMX present, 30 min on ice
T2 construct: made in house; host or cells: HEK 293 cells, transient transfection; lysate supernatant or Mono Q fractions
Procedure: Binding studies were conducted by the Millipore filter binding assay in a total volume of 40 μl containing binding buffer (50 mM Tris-HCl, pH 7.5, 2.0 mM EDTA, 1 mM DTT, 100 mM NaCl) and 0.1 mM IBMX in the presence of 0.01 -20 μM ^3H-cGMP. In some experiments an additional 30 min preincubation of recombinant PDE5 with monoclonal antibodies (mAb/P3B2 or mAb/P4D8) was performed before addition of cGMP. Following a 30 min incubation on ice, 1 ml of ice cold binding buffer was added to the assays. The samples were immediately filtered through a Millipore HAWP nitrocellulose membrane (pore size 0.45 μM, 24 mm diameter) and rinsed three times with ice cold binding buffer (10 ml each). The filters were dissolved in 5 ml of Filter Count™ (Packard Instrument) and counted in a liquid scintillation counter.
The cGMP saturation binding assay was employed (FIG. 14) using recombinant PDE5 without (filled squares) or with preincubation with monoclonal antibodies mAb/P3B2 (filled circles) or mAb/P4D4 (filled triangles) for 30 min on ice, to determine the Kd for cGMP binding. The binding assays were performed with 0.01-20 μM cGMP in the presence of […] for 30 min on ice. The specific binding (cpm) is calculated by subtraction of nonspecific binding from total binding. […] A linear scatchard plot of the cGMP binding data indicated one class of cGMP-binding sites. […]

[7] = molecular target: T3, recombinant mouse PDE5 (Mus musculus, UniProt Q8CG03); assay: PDE5 activity assay of recombinant mouse PDE5 expressed in HEK 293 cells; type: biochemical; settings: for IC50: IC50 for sildenafil inhibition
T3 construct: made in house; host or cells: HEK 293 cells, transient transfection; lysate supernatant or Mono Q fractions
Procedure: Phosphodiesterase assays were carried out according to established procedures. All assays were performed for 5 min (unless otherwise indicated) at 30° C. using different concentrations of cGMP (0.1-10 μM) as substrates. Protein concentrations were determined by the Coomassie Plus protein assay (Pierce).
Recombinant mouse PDE5 was expressed in HEK 293 cells. […] The cells were lysed in a small volume of homogenization buffer in order to obtain a concentrated extract, and then the cell extract was preincubated with 50 μM cGMP on ice without PDE inhibitors (filled triangles, FIGS. 11A and 11B) or with 0.2 μM sildenafil (filled circles, FIG. 11B). At different time points aliquots were diluted 1/400-1/500, and different amounts of diluted extract (additional dilution 1/5-1/10) were used for PDE5 activity assayed at 0.1 μM cGMP for 5 min at 30° C. An additional portion of 50 μM cGMP was added to the preincubation mixture at 60 min after the start of preincubation as indicated by an arrow (open triangles, FIG. 11A). PDE5 activity was expressed as pmol/min/μg of protein. […] The percent of 50 μM cGMP hydrolysis at different time points was measured using the PDE5 activity assay.
To investigate this further, PDE5 was preincubated of with 50 μM cGMP on ice and an aliquot was diluted and assayed with either 0.1 μM, 1.0 μM or […] cGMP for 5 min at 30° C. Data are expressed as fold activation of PDE5 activity after preincubation with 50 μM cGMP (FIG. 12A).
PDE5 activity was measured at 0.1 μM (FIG. 16A), 1.0 μM (FIG. 16B) or 10 μM cGMP (FIG. 16C). It was analyzed without any treatments (filled squares), or after preincubation with 50 μM cGMP on ice (filled triangles), or after preincubation with mAb/P3B2 for 30 min on ice (filled circles). Treatment of PDE5 with mAb/P3B2 for 30 min on ice preceded preincubation with 50 μM cGMP (open circles). PDE5 activity was expressed as […].
Kinetic and inhibitory characteristics of activated PDE5. […] FIG. 18A depicts a Lineweaver-Burk double-reciprocal plot (0.1-10 μM cGMP) of activated (after preincubation with cGMP on ice) (filled triangles) PDE5 and mAb/P3B2 treated PDE5 (filled circles). PDE5 activity was expressed as pmol/min/μg of protein. […] PDE5 activities, assayed at each substrate concentration without sildenafil, were expressed as 100%. Km, Vmax and IC50 values were calculated using GraphPad Prism 2.0 C (GraphPad Software, San Diego, Calif.).

[8] = molecular target: T3, recombinant mouse PDE5; assay: as above; type: biochemical; settings: assayed at 10 μM cGMP
[9] = molecular target: D289A mutant cGB-PDE (Bos taurus, UniProt Q28156, D289A); assay: cGMP-binding kinetics of D289A mutant cGB-PDE
Source text: This curvilinearity may have been due to the presence of distinct high affinity (slow) and low affinity (fast) sites of cGMP binding.

[10] = activated PDE5 (preincubated with 50 μM cGMP)

Question: How did the IC50 [1] turn out when `CCCOc1ccccc1-c1nc2nn[nH]c2c(=O)[nH]1` was run?
Answer: 2000 nM

Question: Which “effect on basal PDE activity in absence of added metal” value [2] does the source give for `c1cnc2c(c1)ccc1cccnc12` [1,10-phenanthroline] here?
Answer: inhibited

Question: With `O=C(O)CN(CCN(CC(=O)O)CC(=O)O)CC(=O)O` [EDTA] as the compound, how does the “effect on basal PDE activity in absence of added metal” value [2] read?
Answer: inhibited

Question: How did the “stimulation of cGMP binding” value ([3]; 0.2 mM IBMX, 1 μM [3H]cGMP) turn out when `CC(C)Cn1c(=O)n(C)c(=O)c2[nH]cnc21` [IBMX, 3-isobutyl-1-methylaxanthine] was run?
Answer: approximately 1.8 fold

Question: `Nc1nc2c(ncn2[C@@H]2O[C@@H]3COP(=O)(O)O[C@H]3[C@H]2O)c(=O)[nH]1` [cGMP] was tested. Which “excess concentration of unlabelled competitor required to inhibit [3H]cGMP binding by 50%” value ([3]; 2.5 μM [3H]cGMP) did it give?
Answer: Less than 10 fold higher concentrations

Question: What about the Kd [4] of the same compound?
Answer: ~2000 nM

Question: What about the Kd [5] of the same compound?
Answer: ~500 nM

Question: And the “t1/2 of single cGMP-dissociation rate” value [5]?
Answer: 2.8 h

Question: And the Kd [6]?
Answer: 120 nM

Question: And the Km [7, 10]?
Answer: 0.96 µM

Question: What about the Vmax [7, 10] of the same compound?
Answer: 27 pmol/min/μg of protein

Question: And the “PDE5 activation after preincubation with 50 μM cGMP” value (shortened to “PDE5 activation after preincubation”) ([7]; assayed at 0.1 μM cGMP, 5 min 30° C., 15 min preincubation on ice)?
Answer: 10 times

Question: And the “PDE5 activation after preincubation” value ([7]; assayed at 1.0 μM cGMP)?
Answer: 2-3 times

Question: And the Vmax ([7]; non-activated PDE5 (mAb/P3B2 treated))?
Answer: 8.9 pmol/min/μg of protein

Question: What about the Km ([7]; non-activated PDE5 (mAb/P3B2 treated), read-out: Km for cGMP) of the same compound?
Answer: 4.6 µM

Question: What about the “PDE5 activation after preincubation” value [8] of the same compound?
Answer: not detectable

Question: What about the “t1/2 of single rate of cGMP-association” value [9] of the same compound?
Answer: 0.5 h

Question: What about the Kd ([9]; read-out: Kd of cGMP binding) of the same compound?
Answer: > 20000 nM

Question: With `COc1ccc(C2CNC(=O)C2)cc1OC1CCCC1` (stereo not drawn) [rolipram] as the compound, how does the IC50 [1] read?
Answer: > 300000 nM

Question: How did the “time PDE5 activation was sustained during preincubation with 50 μM cGMP” value ([7]; 0.2 μM sildenafil in preincubation mixture) turn out when `CCCc1nn(C)c2c(=O)[nH]c(-c3cc(S(=O)(=O)N4CCN(C)CC4)ccc3OCC)nc12` [sildenafil] was run?
Answer: at least 90 min

Question: What about the IC50 ([7]; activated PDE5, assayed at 0.1 μM cGMP) of the same compound?
Answer: 0.6 nM

Question: What about the IC50 ([7]; activated PDE5, assayed at 1.0 μM cGMP) of the same compound?
Answer: 1.2 nM

Question: And the IC50 ([7]; control PDE5, assayed at 0.1 μM cGMP)?
Answer: 2.1 nM

Question: What about the IC50 ([7]; control PDE5, assayed at 1.0 μM cGMP) of the same compound?
Answer: 4.9 nM
